Experiments:
Tdp1 = target: T1, Tdp1 (Homo sapiens, UniProt Q9NUW8); experiment: Tdp1 inhibition, fluorescent oligonucleotide biosensor; assay type: biochemical; details: purified Tdp1 1.5 nM, 50 nM biosensor; read-out: Concentration of half-maximal inhibition of Tdp1 (IC50)
T1 construct: Purified Tdp1 (1.5 nM) triggered the reaction
Source text: The inhibitory properties of the compound on the purified Tdp1 was studied using a technique developed previously by our team. A 16-mer single-stranded oligonucleotide carrying a fluorophore at the 5′-end and a quencher at the 3′-end was used as a biosensor. When within the Förster radius, the quencher suppressed the fluorescence of the fluorophore. The quencher was removed by Tdp1, resulting in fluorescence emission. Usnic acid derivatives with a bromophenol residue in the enamine fragment (compounds 6 and 8) inhibit the enzyme with half-maximal inhibition concentrations (IC50) an order of magnitude worse than derivatives with a di-tert-butyl fragment (compounds 5 and 7).
An oligonucleotide 5′-[FAM] AAC GTC AGGGTC TTC C [BHQ1]-3′ synthesized in the laboratory Laboratory of Nucleic Acids Chemistry at the Institute of Chemical Biology and Fundamental Medicine (Novosibirsk, Russia) was used as a biosensor. Removal of the quencher (BHQ1) due to enzyme activity leads to increased fluorescence of FAM. The reaction was carried out at different concentrations of inhibitors (1.5% of DMSO, Sigma, St. Louis, MO, USA, in the control samples). The reaction mixtures contained Tdp1 buffer (50 mM Tris-HCl pH 8.0, 50 mM NaCl, and 7 mM β-mercaptoethanol), 50 nM biosensor, and an inhibitor being tested. Purified Tdp1 (1.5 nM) triggered the reaction.
The fluorescence was measured using POLARstar OPTIMA fluorimeter (BMG LABTECH, GmbH, Ortenberg, Germany). The values of IC50 were determined in minimum three independent experiments and were calculated using embedded software MARS Data Analysis 2.0 (BMG LABTECH, GmbH, Ortenberg, Germany).

[1] = MTT cytotoxicity test, MRC-5; assay type: cell-based; details: human, MRC-5 cells (lung fibroblasts, nontumor), read-out: semitoxic concentration (CC50), MRC-5
Source text: (§1) Compounds 6 and 8 with a bromophenol residue in the enamine fragment have a weak or moderate effect on cell survival (Table 1 and Supplementary Figure S1).
(§2) Cytotoxicity of the compounds against human tumor cell lines: HeLa (cervical cancer), HCT-116 (colorectal cancer), A-549 (lung cancer), MCF-7 (breast cancer), T98G (glioblastoma), HepG2 (hepatocarcinoma), and nontumor cell lines: MRC-5 (lung fibroblasts) and HEK293A (human embryonic kidney) was examined using the MTT test. HCT-116 and MRC-5 cell lines were provided by the Cell Culture Bank of the State Research Center for Virology and Biotechnology Vector, Novosibirsk, Russia. A-549, MCF-7, and T98G cell lines were obtained from the Russian Cell Culture Collection (RCCC) Institute of Cytology RAS (St. Petersburg, Russia). HEK293A cells were purchased (ThermoFisher Scientific, Waltham, MA, USA).
(§3) The cell culture medium DMEM medium (Invitrogen, Carlsbad, CA, USA) contained 10% fetal bovine serum (FBS) (Invitrogen), penicillin (100 units/mL), and streptomycin (100 µg/mL). Cells were seeded into 96-well plates at 5000 cells per well and grown at 37 °C and 5% CO2 in a humid atmosphere. At 30–50% confluence, the tested compounds were added to the medium to a final DMSO content of 1%. Control wells contained 1% DMSO. To determine the cytotoxicity of Tdp1 inhibitors, the cells were treated with compounds with concentrations ranging from 1 to 100 µM for 72 h at 37 °C for 72 h. All measurements were repeated a minimum of twice.

[2] = MTT cytotoxicity test, A-549; assay type: cell-based; details: human, A-549 cells (lung cancer), read-out: semitoxic concentration (CC50), A-549
Source text: as §1, §2, §3

cells = details: cited from earlier work; for CC50: read-out: CC50 values (toxicity to cells)
[3] = MTT cytotoxicity test, HEK293A; assay type: cell-based; details: human, HEK293A cells (embryonic kidney, nontumor), read-out: semitoxic concentration (CC50), HEK293A
Source text: as §1, §2, §3

[4] = MTT cytotoxicity test, T98G; assay type: cell-based; details: human, T98G cells (glioblastoma), read-out: semitoxic concentration (CC50), T98G
Source text: as §1, §2, §3

[5] = MTT cytotoxicity test, HCT-116; assay type: cell-based; details: human, HCT-116 cells (colorectal cancer), read-out: semitoxic concentration (CC50), HCT-116
Source text: as §1, §2, §3

[6] = MTT cytotoxicity test, MCF-7; assay type: cell-based; details: human, MCF-7 cells (breast cancer), read-out: semitoxic concentration (CC50), MCF-7
Source text: as §1, §2, §3

[7] = tested on: mouse Lewis lung adenocarcinoma; design: method as in PMID 34370156; details: cited from earlier work
[8] = tested on: various types of cultured cells; experiment: MTT test, panel of cultured cell lines; assay type: cell-based; details: at concentrations up to 100 μM; wide panel of tumor and non-cancerous cell lines
Source text: as §1, §2
as §3, with “To determine the cytotoxicity of Tdp1 inhibitors, the cells were treated with compounds with concentrations ranging from 1 to 100 µM for 72 h at 37 °C for 72 h. All measurements were repeated a minimum of twice.” left out

[9] = MTT cytotoxicity test, HeLa; assay type: cell-based; details: human, HeLa cells (cervical cancer), read-out: semitoxic concentration (CC50), HeLa
Source text: as §1, §2, §3

T1 sequence (Q9NUW8 whole entry): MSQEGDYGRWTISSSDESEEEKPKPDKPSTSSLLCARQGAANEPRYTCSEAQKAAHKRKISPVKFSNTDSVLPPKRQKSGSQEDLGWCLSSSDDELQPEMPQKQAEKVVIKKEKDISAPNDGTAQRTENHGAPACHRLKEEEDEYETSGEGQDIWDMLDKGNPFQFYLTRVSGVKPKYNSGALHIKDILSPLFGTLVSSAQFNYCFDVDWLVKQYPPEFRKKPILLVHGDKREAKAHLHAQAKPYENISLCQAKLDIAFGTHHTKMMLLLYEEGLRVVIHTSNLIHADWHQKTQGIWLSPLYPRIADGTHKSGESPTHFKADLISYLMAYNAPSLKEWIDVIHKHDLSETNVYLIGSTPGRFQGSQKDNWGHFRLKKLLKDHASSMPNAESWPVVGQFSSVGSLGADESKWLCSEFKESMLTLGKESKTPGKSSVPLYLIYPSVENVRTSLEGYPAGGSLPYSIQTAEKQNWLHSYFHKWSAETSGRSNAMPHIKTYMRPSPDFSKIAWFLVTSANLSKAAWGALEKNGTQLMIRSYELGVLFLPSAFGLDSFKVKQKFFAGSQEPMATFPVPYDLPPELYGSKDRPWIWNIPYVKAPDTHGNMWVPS

Compound	IC50 (Tdp1)	CC50 at 72 h [1]	CC50 at 72 h [2]	CC50 (cells)	CC50 at 72 h [3]	CC50 at 72 h [4]	CC50 at 72 h [5]	CC50 at 72 h [6]	toxicity to the different cell types (in words) (cells)	enhancement of the antitumor effect of topotecan [7]	living cells (metabolic activity, MTT) [8]	CC50 at 72 h [9]
CC(=O)C1=C(O)C=C2Oc3c(-c4csc(N/N=C/c5ccc(Br)cc5)n4)c(O)c(C)c(O)c3[C@@]2(C)C1=O [Compound 4, reference compound]	30 ± 10 nM	7 ± 0.7 µM	3.9 ± 0.2 µM	1.5 µM	12 ± 5 µM	4 ± 1 µM	7 ± 0.6 µM	9.3 ± 2.2 µM	–	–	–	–
CC(=O)c1c(O)c(C)c(O)c2c1OC1=CC(=O)/C(=C(\C)Nc3ccc(Br)cc3)C(=O)[C@@]12C [Compound 2]	–	–	–	–	–	–	–	–	nontoxic	–	–	–
CC(=O)c1c(O)c(C)c(O)c2c1OC1=CC(=O)/C(=C(\C)NCCCc3cc(C(C)(C)C)c(O)c(C(C)(C)C)c3)C(=O)[C@@]12C [Compound 1]	–	–	–	–	–	–	–	–	nontoxic	enhanced at least twofold	–	–
C/C(NCCCc1cc(C(C)(C)C)c(O)c(C(C)(C)C)c1)=C1\C(=O)C=C2Oc3c(-c4csc(N/N=C/c5ccc(Br)s5)n4)c(O)c(C)c(O)c3[C@@]2(C)C1=O [Compound 5, (4E)-10-{2-[(E)-2-[(5-bromothiophenyl)methylidene]hydrazin-1-yl]-1,3-thiazole-4-yl}-4-(1-{[3-(3,5-di-tret-butyl-4-hydroxyhenyl)propyl]amino}ethylidene)-11,13-dihydroxy-2,12-dimethyl-8-oxatricyclo [7.4.0.02,7]trideca-1(13),6,9,11-tetraen-3,5-dione]	140 ± 20 nM	> 100 µM	> 100 µM	–	> 100 µM	> 100 µM	> 100 µM	> 100 µM	–	–	more than 50%	> 100 µM
C/C(Nc1ccc(Br)cc1)=C1\C(=O)C=C2Oc3c(-c4csc(N/N=C/c5ccc(Br)cc5)n4)c(O)c(C)c(O)c3[C@@]2(C)C1=O [Compound 8, (4E)-4-{1-[(4-bromophenyl)amino]ethilidene}-10-{2-[(E)-2-[(4-bromophenyl)methylidene]hydrazin-1-yl]-1,3-thiazol-4-yl}-11,13-dihydroxy-2,12-dimethyl-8-oxatricyclo [7.4.0.02,7]trideca-1(13),6,9,11-tetraen-3,5-dione]	5000 ± 1000 nM	–	30 ± 10 µM	–	88 ± 26 µM	44 ± 13 µM	–	30 ± 20 µM	–	–	–	> 100 µM
CC(=O)C1=C(O)C=C2Oc3c(-c4csc(N/N=C/c5ccc(Br)s5)n4)c(O)c(C)c(O)c3[C@@]2(C)C1=O [Compound 3]	–	–	–	9 to 16 µM	–	–	–	–	–	–	–	–

From PMC10816808, “Enhancement of the Antitumor and Antimetastatic Effect of Topotecan and Normalization of Blood Counts in Mice with Lewis Carcinoma by Tdp1 Inhibitors—New Usnic Acid Derivatives” (International Journal of Molecular Sciences, 2024)
